US12540118B2, “Dendrene amide compound, bactericide and use thereof” (Jiangsu Flag Chemical Industry Co., Ltd., priority 2020, dated 2026)

Experiments:
Erysiphe graminis = Erysiphe graminis potting method; assay type: in vivo; settings: Blumeria graminis; 100 mg/L; read-out: Erysiphe graminis control rating
Protocol: The fungicidal activity of the control agents and target compounds are determined. The test and investigation method refers to SOP-SC-1116 Erysiphe graminis potting method in disinfectant rolls written by KANGZHUO and GUBAOGEN in “Standard operation specification for testing biological activity of pesticides”.

Sphaerotheca fuliginea = Sphaerotheca fuliginea potting method; assay type: in vivo; settings: Podosphaera fuliginea; 100 mg/L; read-out: Sphaerotheca fuliginea control rating
Protocol: The fungicidal activity of the control agents and target compounds are determined. The test and investigation method refers to SOP-SC-1101 sphaerotheca fuliginea potting method in disinfectant rolls written by KANGZHUO and GUBAOGEN in “Standard operation specification for testing biological activity of pesticides”.

succinate dehydrogenase = target: T1, succinate dehydrogenase (Sus scrofa, UniProt A5GZW8+D0VWV4+Q007T0); assay: Enzyme activity assay, succinate dehydrogenase (DCIP reduction); assay type: biochemical, porcine; settings: read-out: Inhibitors (10 μM, SQR)
T1 construct: isolated from porcine hearts; from tissue; host or cells: porcine heart
T1 sequence (Q0QF01 43-664 partner): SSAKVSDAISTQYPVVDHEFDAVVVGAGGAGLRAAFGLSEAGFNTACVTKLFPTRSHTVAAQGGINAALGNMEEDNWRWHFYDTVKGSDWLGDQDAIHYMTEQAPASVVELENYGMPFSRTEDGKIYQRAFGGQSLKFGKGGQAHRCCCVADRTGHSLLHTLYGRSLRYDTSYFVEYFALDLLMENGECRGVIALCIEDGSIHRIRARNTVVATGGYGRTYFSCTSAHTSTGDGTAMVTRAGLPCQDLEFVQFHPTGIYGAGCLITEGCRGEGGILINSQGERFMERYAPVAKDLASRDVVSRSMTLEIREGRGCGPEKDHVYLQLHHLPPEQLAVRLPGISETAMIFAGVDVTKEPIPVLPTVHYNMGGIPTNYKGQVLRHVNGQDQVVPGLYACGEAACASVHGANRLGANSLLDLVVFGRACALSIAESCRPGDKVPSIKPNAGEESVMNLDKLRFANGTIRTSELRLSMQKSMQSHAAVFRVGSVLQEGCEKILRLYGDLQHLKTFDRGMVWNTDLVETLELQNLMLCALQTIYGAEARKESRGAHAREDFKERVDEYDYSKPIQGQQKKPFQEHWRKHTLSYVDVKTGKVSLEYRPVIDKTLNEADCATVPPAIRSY
T1 sequence (Q007T0 29-280): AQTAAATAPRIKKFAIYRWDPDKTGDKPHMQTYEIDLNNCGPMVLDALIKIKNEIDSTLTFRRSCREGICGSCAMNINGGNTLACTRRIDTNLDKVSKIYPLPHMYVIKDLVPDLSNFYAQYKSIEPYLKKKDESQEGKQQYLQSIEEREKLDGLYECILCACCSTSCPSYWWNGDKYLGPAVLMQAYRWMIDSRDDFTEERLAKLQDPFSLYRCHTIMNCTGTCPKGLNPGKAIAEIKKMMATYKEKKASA
T1 sequence (D0VWV4 30-169): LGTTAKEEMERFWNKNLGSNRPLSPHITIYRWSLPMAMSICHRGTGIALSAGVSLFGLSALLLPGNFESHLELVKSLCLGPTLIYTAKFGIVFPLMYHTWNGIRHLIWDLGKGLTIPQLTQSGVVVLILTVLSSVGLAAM
T1 sequence (A5GZW8 57-159 limits assumed): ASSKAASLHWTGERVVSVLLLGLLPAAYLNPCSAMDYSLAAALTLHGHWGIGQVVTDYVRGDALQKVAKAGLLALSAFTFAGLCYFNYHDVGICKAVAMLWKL
Method in brief: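 Porcine heart succinate dehydrogenase (2 nM) in 100 mM sodium phosphate pH 7.4, 0.3 mM EDTA, 20 mM sodium succinate and 53 μM DCIP at 23° C with stirring. DCIP reduction followed at 600 nm (ε 21 mM^−1 cm^−1); linear slope minus baseline gives initial rate.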

Row | SMILES | pest or weed control at 100 µg/mL (Erysiphe graminis) [%] | pest or weed control at 100 µg/mL (Sphaerotheca fuliginea) [%] | inhibition at 10 µM (succinate dehydrogenase) [%]
1 | Cc1ccc(C(C)(C)C)cc1C(=C(Cl)Cl)C(C)N(C(=O)c1c(C(F)F)nn(C)c1F)C1CC1 (stereo not drawn) [Compound 200] | 80 to 100 | 80 to 100 | > 90
2 | Cc1cc(C(C)C)ccc1C(=C(Cl)Cl)C(C)N(C(=O)c1c(C(F)F)nn(C)c1F)C1CC1 (stereo not drawn) [Compound 201] | 80 to 100 | 80 to 100 | > 90
3 | Cc1ccccc1C(=C(Cl)Cl)C(C)N(C(=O)c1c(C(F)F)nn(C)c1F)C1CC1 (stereo not drawn) [Compound 202] | 80 to 100 | 80 to 100 | > 90
4 | Cc1ccc(C(=C(Cl)Cl)C(C)N(C(=O)c2c(C(F)F)nn(C)c2F)C2CC2)cc1 (stereo not drawn) [Compound 203] | 80 to 100 | 80 to 100 | > 90
5 | Cc1ccc(C(=C(Cl)Cl)C(C)N(C(=O)c2c(C(F)F)nn(C)c2F)C2CC2)cc1C (stereo not drawn) [Compound 204] | 80 to 100 | 80 to 100 | > 90
6 | Cc1cc(C)cc(C(=C(Cl)Cl)C(C)N(C(=O)c2c(C(F)F)nn(C)c2F)C2CC2)c1 (stereo not drawn) [Compound 205] | 80 to 100 | 80 to 100 | > 90
7 | CC(C(=C(Cl)Cl)c1ccc(Cl)cc1F)N(C(=O)c1c(C(F)F)nn(C)c1F)C1CC1 (stereo not drawn) [Compound 206] | 80 to 100 | 80 to 100 | > 90
8 | CC(C(=C(Cl)Cl)c1ccc(F)cc1Cl)N(C(=O)c1c(C(F)F)nn(C)c1F)C1CC1 (stereo not drawn) [Compound 207] | 80 to 100 | 80 to 100 | > 90
9 | CC(C(=C(Cl)Cl)c1cc(Cl)ccc1F)N(C(=O)c1c(C(F)F)nn(C)c1F)C1CC1 (stereo not drawn) [Compound 208] | 80 to 100 | 80 to 100 | > 90
10 | CC(C(=C(Cl)Cl)c1cc(C(F)(F)F)ccc1Cl)N(C(=O)c1c(C(F)F)nn(C)c1F)C1CC1 (stereo not drawn) [Compound 209] | 80 to 100 | 80 to 100 | > 90
11 | CC(C(=C(Cl)Cl)c1cccc(C(F)(F)F)c1Cl)N(C(=O)c1c(C(F)F)nn(C)c1F)C1CC1 (stereo not drawn) [Compound 210] | 80 to 100 | 80 to 100 | > 90
